This is an account of results in article PMC6522524 (Nature Communications, 2019).

The structures appear in SMILES notation. Where two headings read alike, the source gives them in different places.

For data set [1], the system named is HBV (ayw subtype, genotype D) replicon in HepG2.2.15 cells. As to the kind of experiment: microbe, parasite or virus in culture. The format is cell-based, Hepatitis B virus. The following applies: Hepatitis B virus.
Data set [2] deals with HBV core protein Y118F mutant in Huh-7 cells (Hepatitis B virus genotype C, UniProt P0C6H6, Y118F). Kind of data set: Intracellular HBV capsid assembly, Huh-7 cells transfected with pCDNA3-Core Y118F. Format: cell-based.
Sequence of HBV core protein Y118F mutant in Huh-7 cells (P0C6H6 whole entry Y118F, looked up): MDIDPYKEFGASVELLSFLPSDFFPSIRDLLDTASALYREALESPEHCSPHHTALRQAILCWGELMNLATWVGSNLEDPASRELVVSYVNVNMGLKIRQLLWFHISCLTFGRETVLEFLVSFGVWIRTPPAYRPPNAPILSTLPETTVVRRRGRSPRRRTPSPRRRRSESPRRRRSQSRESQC
Another data set deals with HepG2.2.15 cells. The following applies: 0.1–10 μM, 6 days.
Where [3] appears, read: HepG2.2.15, 144 h, read-out: Relative secreted HBV DNA level (Folds), AVERAGE.
[4] abbreviates: HepG2.2.15, 144 h, read-out: Relative secreted HBV DNA level (Folds), individual samples.

Broadly, the inhibition is the drop in the measured response relative to a control, in per cent. As usually defined, the IC50 is the point on the concentration scale where inhibition reaches its midpoint. For `Cc1cc(C2CCCCC2)n(O)c(=O)c1` [Ciclopirox, 6-cyclohexyl-1-hydroxy-4-methyl-2(1 H)-pyridone], in data set [1] (HepG2.2.15, 72 h, read-out: % of inhibition (ETV =100%), initial screening (3days)), the inhibition at 1 µM was found to be 142%. Also, the inhibition at 1 µM in data set [1] (HepG2.2.15, 144 h, read-out: % of inhibition (ETV =100%), confirmation (6days)) is 88.6%. For the same compound, in data set [1] (HepG2.2.15, 144 h, read-out: IC50, HBV DNA secretion), the IC50 stood at 880 ± 70 nM. Besides, in data set [1] (setting [3]), the activity at 0.1 µM amounted to 102%, the activity at 0.2 µM was determined as 81.1%, the activity at 0.5 µM was found to be 52.1% and the activity at 1 µM was 51.6%. Further, in data set [1] (setting [3]), the activity at 2 µM is 29.1%, the activity at 5 µM is 23.5% and the activity at 10 µM is 4.49%. In data set [1] (setting [4]), the activity at 0.1 µM was 102%, the activity at 0.2 µM is 83%, the activity at 0.5 µM was 48.1% and the activity at 1 µM is 49.9%. Also, the activity at 2 µM in data set [1] (setting [4]) is 29%. In addition, the “reduction in sensitivity of Y118F compared with the wild-type” value in data set [2] was “approximately 4 fold”. In addition, the “cytotoxicity” value in the data set with HepG2.2.15 cells is listed as “no significant cytotoxicity”.
